Structures can show the parent of a compound that is named as a salt.
Molecular target: T1, human ornithine aminotransferase (hOAT) (Homo sapiens, UniProt P04181)
T1 sequence (P04181 26-439): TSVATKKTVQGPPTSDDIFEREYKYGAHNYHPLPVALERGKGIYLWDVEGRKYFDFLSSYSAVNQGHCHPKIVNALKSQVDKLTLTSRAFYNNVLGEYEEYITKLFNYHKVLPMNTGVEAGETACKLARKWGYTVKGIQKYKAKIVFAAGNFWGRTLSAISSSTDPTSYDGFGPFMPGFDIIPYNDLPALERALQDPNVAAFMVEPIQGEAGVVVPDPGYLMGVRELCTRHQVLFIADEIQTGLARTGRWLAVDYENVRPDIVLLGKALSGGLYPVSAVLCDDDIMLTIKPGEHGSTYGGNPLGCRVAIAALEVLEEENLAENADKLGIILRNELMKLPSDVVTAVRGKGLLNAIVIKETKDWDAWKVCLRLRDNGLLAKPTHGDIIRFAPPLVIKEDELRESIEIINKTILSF
Test: […] Å crystal structure of the inactivated enzyme
Format: biochemical
Settings: read-out: Ki

## N[C@H]1C[C@@H](C(=O)O)CC1=C(C(F)(F)F)C(F)(F)F [compound 1, (1S,3S)-3-amino-4-(perfluoropropan-2-ylidene)cyclopentane-1-carboxylic acid hydrochloride]
  KI (inactivation): 54 µM
